Measurements published in US12109327B2, “Scaffolds from self-assembling tetrapeptides support 3D spreading, osteogenic differentiation and angiogenesis of mesenchymal stem cells” (KING ABDULLAH UNIVERSITY OF SCIENCE AND TECHNOLOGY, priority 2020, dated 2024).
Non-standard residues stand in square brackets, D forms with d. Cha = N[C@@H](CC1CCCCC1)C(=O)O

Columns and labels:
[1] = Vial inversion test: gelation time and critical gelation concentration; assay type: physicochemical; settings: for critical gelation concentration (CGC): aqueous solution, 1× PBS
Description: In one embodiment, an instant hydrogel formation can be observed when PBS buffer is added to the peptide solution. In one embodiment, the gelation time is determined using a vial inversion test performed at different peptide concentrations in 1×PBS to meet physiological conditions. FIG. 13 compares the gelation time of IVFK and IVZK at different concentration.
The lyophilized peptide powders were dissolved in Milli-Q® water by vortexing into a clear solution at room temperature. Then, 10× phosphate-buffered saline (PBS) was added to the aqueous peptide solution at a final volume ratio of peptide solution to 10×PBS of 9:1. The vial inversion test was performed with different peptide concentrations to find the critical gelation concentration (CGC). To study the spatial structure of the peptide solution during the assembly process, two-dimensional (2D) NMR was performed using Bruker Avance III 600 MHz. Furthermore, scanning electron microscopy (SEM) was performed to visualize the morphology of the self-assembled nanofibers.

MSCs = experiment: SEM of cell-matrix interaction; assay type: cell-based, human; settings: after 14 days of culture
Description: Scale bars are 5 and 10 μm, in the left and right panels respectively.
SEM was also used to determine the cell-matrix interaction. First, the cells encapsulated in hydrogels were fixed in 2.5% glutaraldehyde for overnight (4° C.) and then washed using PBS. The samples were subsequently incubated in 1% osmium tetroxide for one hour and washed with water. Afterwards, the dehydration was done by immersing them in increasing concentrations of ethanol: 30, 50, 70, 90 and 100%, 15 min each step. Then, the samples were processed in critical point dryer. The dried samples were then mounted and coated with 5 nm Ir thickness.

BM-MSCs [2] = experiment: Quantitative RT-PCR of osteogenic genes; assay type: cell-based, human
Description: Real-time polymerase chain reaction (PCR) values of the BM-MSC gene expressions of the bone morphogenetic protein (BMP-2) (FIG. 37), bone sialoprotein 2 (IBSP) (FIG. 35), osteopontin (OPN) (FIG. 38), osterix (OSX) (FIG. 39), and RUNX2 (FIG. 36) are evaluated after 30 days of culture. […] In FIGS. 35-39, * mens p<0.05 and ** means p<0.001, indicating statistical significance.
The BM-MSCs were cultured on different scaffolds with an osteogenic medium for 4 weeks. Total RNA was extracted using the TRIzol™ reagent. RNA concentration and purity were measured using a NanoDrop® 8000 spectrophotometer (Thermo Fisher®). Complementary DNA (cDNA) was synthesized using the ImProm-II Reverse Transcription System. Primer sequences were taken from previously published studies and are summarized in below. Relative quantification was performed using the comparative CT (2-ΔΔCT) and normalized against glyceraldehyde 3-phosphate dehydrogenase (GAPDH), which was used as a housekeeping gene to calculate the fold change in gene expression. BM-MSCs on a 2D culture using basal media were used as controls.

[3] = Oscillatory rheological test of peptide hydrogel stiffness (storage modulus G′); assay type: physicochemical; settings: for Storage modulus: 1 rad/s, 0.1% strain
Description: Therefore, in one embodiment, the mechanical stiffness of each peptide hydrogel is assessed by the storage modulus (G′) at different concentrations.
The oscillatory rheological test was performed to determine the mechanical properties of the peptide hydrogels. The peptide hydrogels were measured on a TA Ares G2 rheometer with an 8 mm parallel-plate geometry and a 1.5 mm gap distance at a temperature of 22° C. All of the hydrogels were made inside a Sigmacote®-coated glass ring with 9 mm inner diameter 19 h prior to measurement. Six replicates with a volume of 150 μL were prepared for each sample. […]

BM-MSCs [4] = experiment: Alkaline phosphatase (ALP) assay; assay type: cell-based, human
Source text: (§1) In one embodiment, the BM-MSCs differentiate to the osteogenic lineage. The expression of osteocalcin is stained and imaged after 3 weeks of culture in osteogenic medium using confocal microscopy, as shown in FIG. 33. FIG. 33 is confocal images showing the expression of osteocalcin stained in green, and the cell nuclei stained in blue using DAPI. The scale bar in FIG. 33 is 100 μm. […] Additionally, the levels of alkaline phosphatase (ALP), an early osteogenic marker expressed by osteoblast cells, are also measured to confirm the commitment of BM-MSCs toward the osteogenic lineage. […] Furthermore, the ALP activity increased with time during the initial 2 weeks as an indicator of osteogenic differentiation. In FIG. 34, * means p<0.05, indicating statistical significance.
Alkaline phosphatase (ALP) was measured after 1 and 2 weeks of culture using an alkaline phosphatase substrate kit. At the end of each culture time, the scaffolds were washed by PBS and cells were lysed using 1% Triton X-100. Then, 80 μL of the cell lysate mixture was added to 50 μL of the para-nitrophenylphosphate (pNPP) substrate (5 mM) and incubated at room temperature for 2 h. The reaction was inhibited by the addition of a stop solution, and the absorbance was measured at 405 nm using a multimode plate reader (PHERAstar® FS, Germany).

HUVECs = experiment: In vitro angiogenesis study; assay type: cell-based, human
Description: When bone deficiency occurs, it often causes blood vessel damage. Blood vessels provide the necessary components to repair the region of bone defects by transferring oxygen and nutrients.^107, 108 In one embodiment, the capability of IVFK and IVZK hydrogels to support angiogenesis is also evaluated using HUVECs and compared with collagen, which is an essential component of the ECM and is known to support the angiogenesis of endothelial cells,^23 because the capillary system is a crucial component in bone regeneration. Viability of HUVECs in IVZK scaffold after culturing for 24 h can be observed the bright field image as shown in FIG. 45 and confocal images as shown in FIG. 46. In FIG. 46, live cells are stained in green by Calcein-AM, while dead cells are stained red by Ethidium homodimer. In FIGS. 45 and 46, the scale bar is 100 μm. Furthermore, the angiogenesis ability of IVZK scaffold is also measured by the vessels junctions (FIG. 48), number of nodes (FIG. 49) and, in total vessels length (FIG. 47) for 5 different microscopic pictures. […] In FIG. 50, the scale bar is 100 μm.
Peptide hydrogel or collagen was placed in a 24-well plate, and human umbilical vein endothelial cells (HUVECs) at 40,000 cells/well were added on top of the peptide gel or collagen. Cells were cultured in endothelial growth media for 24 h. Cells were then investigated using an inverted microscope, and images were analyzed by ImageJ using the Angiogenesis Analyzer.

BM-MSCs [5] = experiment: Alizarin red staining of mineralization; assay type: cell-based, human
Source text: Alizarin red staining (ARS) is used to detect calcium deposition. The BM-MSCs cultured in the different scaffolds in the osteogenic medium are stained by Alizarin red to confirm the mineralization process during osteogenic differentiation (FIGS. 4b and S11b). […] The scale bar in FIGS. 31 and 32 is 100 μm. […] This indicates the presence of calcium deposits.
After 14 days of culture, the media were removed and the cells were washed three times with PBS, fixed with 4% paraformaldehyde, and incubated for 15 min at room temperature.
After 14 days of culture, the media was removed and then, the cells were washed three times with PBS and then fixed with 4% paraformaldehyde and the cells incubated for 15 minutes at room temperature. Then, the cells were washed three times with Milli-Q® water. Then the Milli-Q® water was removed and 1 mL of 40 mM Alizarin Red Staining (pH=4.2) was added to each well. The scaffolds were incubated at room temperature for 20-30 min with gentle shaking. […] For the quantification of Alizarin Red Staining, 100 μL of 10% acetic acid was added to each well in a 48-well plate and incubated at room temperature for 30 minutes with gentle shaking. […] Finally, 50 μL of each tube was transferred to a 96-well plate, and the absorbance at 405 nm was read with a plate reader (PHERAstar® FS, Germany)

BM-MSCs [6] = experiment: Osteocalcin immunostaining, confocal microscopy; assay type: cell-based, human
Source text: as §1
Immunostaining was performed after each time point of culture. Briefly, cells were fixed by 4% paraformaldehyde solution for 30 min and incubated in a cold cytoskeleton buffer (3 mM MgCl2, 300 mM sucrose, and 0.5% Triton X-100 in PBS solution) for 5 min to permeabilize the membranes of the cells. The permeabilized cells were incubated in a blocking buffer solution, 5% fetal bovine serum (FBS), 0.1% Tween-20, and 0.02% […] in PBS for 30 min. […]

BM-MSCs [7] = experiment: Alamar Blue cell viability assay; assay type: cell-based, human; settings: compared to controls (2D and Matrigel)
Description: In one embodiment, the hydrogels are screened for biocompatibility, cell attachment, and proliferation. Different concentrations of the peptides are tested for their biocompatibility of the cells within the constructs. […] Control is the cells incubated for 48 h without peptides.
The hBM-MSCs were cultured in T75 flasks and incubated in a CO2 incubator maintained at 37° ° C. with 5% CO2. Culture media were replaced every 2-3 days until the cells reached 80% confluency. Confluent cells were trypsinized and subcultured, and cells at passage 3-6 were used for the study. For the 3D culture, different peptides were sterilized by exposure to UV light for 30 min. Then, 200 μL of 3D constructs in the 48-well plate was formed by mixing the peptide solution (IVZK=3 mg/mL (5.42 mM); IVFK=4 mg/mL (7.31 mM)) with 40,000 cells suspended in 2×PBS. Culture plates were incubated for 5 min at 37° C., and the complete medium was added carefully to the culture plates. […] The morphology, cell proliferation, and mineralization of the cells in each scaffold were analyzed and compared. […]
A volume of 10 μL of Alamar blue stock solution was added to 100 μL of media in each well. […] The fluorescence was measured at an excitation wavelength of 530 nm, and the emission at 590 nm. The viability percentage was calculated against the control (2D).

[8] = hydrogel around 20 kPa (4 mg/mL) versus 50 kPa (8 mg/mL)
[9] = 24 h, versus collagen positive control

Ac-Ile-Val-Cha-Lys-NH2 (Ac-IV[Cha]K-NH2; not fully specified; printed as Ac-Ile-Val-Cha-Lys-NH2) [IVZK, nonaromatic self-assembling tetrapeptide (Z = cyclohexylalanine) forming hydrogel scaffold]
critical gelation concentration (CGC) [1]: 2 mg/mL | gelation time ([1]; different peptide concentrations in 1×PBS, IVZK versus IVFK): less time to form the hydrogel, compared to IVFK | cell morphology by SEM (MSCs): elongated spindlelike morphology | OPN gene expression (BM-MSCs [2]; after 30 days of culture): downregulated | G′ value, IVZK versus IVFK ([3]; at the same concentration): higher G′ value compared to IVFK | Storage modulus ([3]; peptide hydrogel 2 mg/mL): 10.00 ± 0.12 kPa | Storage modulus ([3]; peptide hydrogel 3 mg/mL): 17.21 ± 1.38 kPa | Storage modulus ([3]; peptide hydrogel 4 mg/mL): 29.77 ± 1.19 kPa | Storage modulus ([3]; peptide hydrogel 6 mg/mL): 43.03 ± 2.81 kPa | Storage modulus ([3]; peptide hydrogel 8 mg/mL): 75.21 ± 4.08 kPa

Ac-Ile-Val-Phe-Lys-NH2 (Ac-IVFK-NH2) [aromatic self-assembling tetrapeptide forming hydrogel scaffold]
critical gelation concentration (CGC) [1]: 2 mg/mL | cell morphology by SEM (MSCs): elongated spindlelike morphology | expression of osteogenic genes OPN and BMP-2 (BM-MSCs [2]; 20 kPa hydrogel versus 50 kPa scaffold): able to support cell differentiation much better than the 50 kPa scaffold | IBSP gene expression level (BM-MSCs [2]; after 30 days of culture): highest | OPN gene expression (BM-MSCs [2]; after 30 days of culture): upregulated | OSX expression level (BM-MSCs [2]; after 30 days of culture): low | Runx2 gene expression (BM-MSCs [2]; after 30 days of culture): higher | ALP activity (BM-MSCs [4]; after 7 days in osteogenic medium, versus collagen, p<0.05): Significantly higher ALP activity | ALP release (BM-MSCs [4]; [8]): higher ALP release than that at 50 kPa | junctions (HUVECs; [9]): no significant difference | nodes (HUVECs; [9]): no significant difference | total length of tubes (HUVECs; [9]): no significant difference | network formation of HUVECs (HUVECs; after 24 h of culture): forms dense network structures | calcium content (Alizarin red-S quantification) (BM-MSCs [5]; [8]): significantly higher calcium content than that at 50 kPa | Alizarin red-S (ARS) staining of mineral deposits (BM-MSCs [5]; osteogenic medium, compared to the other scaffolds): most intense ARS staining | stiffness ([3]; peptide concentration 4 mg/mL): around 20 kPa | stiffness ([3]; peptide concentration 8 mg/mL): ~50 kPa | Storage modulus ([3]; peptide hydrogel 2 mg/mL): 0.54 ± 0.06 kPa | Storage modulus ([3]; peptide hydrogel 3 mg/mL): 7.03 ± 0.19 kPa | Storage modulus ([3]; peptide hydrogel 4 mg/mL): 23.40 ± 0.88 kPa | Storage modulus ([3]; peptide hydrogel 6 mg/mL): 35.79 ± 0.95 kPa | Storage modulus ([3]; peptide hydrogel 8 mg/mL): 51.79 ± 4.73 kPa | osteocalcin expression (BM-MSCs [6]; 3 weeks in osteogenic medium): comparable to those cultured in the collagen control group | osteocalcin expression (BM-MSCs [6]; 20 kPa scaffold compared to the others): more intense | cell growth (Alamar Blue) (BM-MSCs [7]): significant increase in cell growth compared to both controls
